{"source": "patent US5574008A", "about": "“Biologically active fragments of glucagon-like insulinotropic peptide” (Eli Lilly and Company, priority 1994, dated 1996)", "tested_on": "fasted normal Sprague-Dawley rats", "experiment": "In vivo hyperglycemic clamp assay (glucose up-take assay)", "parameters": "species or system rat", "conditions": "200 mg/dl plasma glucose clamp, 0.3 nmol/kg iv bolus at 60 min", "excerpt": "In vivo Hyperglycemic Clamp Assay (Glucose Up-take Assay) Male Sprague-Dawley rats (Charles Rivers) weighing about 350 grams were allowed to acclimate to their surroundings for a week after which they were cannulated under isoflurane inhalation anesthetic. Two catheters were implanted into the jugular vein for infusions of glucose and GLP-1 fragment. Another catheter was implanted into the carotid artery for sampling blood. The catheters were exteriorized through the skin at the vertex of the head, filled with a glycerol/heparin solution (30 ml glycerol/10 ml heparin from a 1000 u/ml stock solution), and closed off with a one centimeter stainless steel plug. The rats were housed individually in wire mesh cages and were fed ad libitum on a standard rat chow diet. Each animal was given at least one week to recover from surgery before testing any GLP-1 fragments for biological activity. The rats were fasted overnight; on the morning of the experiment, sampling tubes were connected to the indwelling catheters, and the tubes were enclosed in a light weight stainless steel spring for protection. The rats were acclimated to their cages for 15 minutes. All experiments were carried out in conscious, free moving rats. A basal blood sample was taken for measurement of insulin and glucose levels at time zero on the timer. The rats were then given a bolus of 20% dextrose to raise plasma glucose to either 150 mg/dl (8.3 mM) or 200 mg/dl (11.2 mM). Plasma glucose levels were maintained at the chosen level by measuring plasma glucose levels approximately every 5 minutes and adjusting the calibrated variable infusion pump as needed to maintain the established blood glucose levels. Blood samples were collected at 45 and 60 minutes for the control period measurements. At 60 minutes into the clamp, 0.3 nmol/kg of the experimental GLP-1 fragment was injected via the jugular vein catheter and flushed with saline. […] The blood samples were centrifuged in a micro centrifuge to separate the plasma component. Plasma glucose was measured on a Beckman Glucose analyzer II using the glucose oxidase method. Plasma insulin was determined by standard radio immunoassay as per the manufacturer's directions (Diagnostic Products Corp.). The activity of the GLP-1 fragment was determined by the percentage change in glucose infusion rate and change in insulin secreted. These two parameters were compared to control rats that received only diluent. Note: This assay is based on reports that GLP-1 insulinotropic action is glucose dependent. The assay protocol eliminates variability due to falling glucose levels in other protocols using the \"bolus\" method. The hyperglycemic clamp involved administration of variable amounts of glucose (20% dextrose) to maintain glucose at a constant level of 8.3 or 11.2 mM in fasted normal Sprague-Dawley rats. The hyperglycemic clamp is maintained for 1 hour after which the GLP-1 fragment is injected as a bolus through the jugular vein. […] The glucose infusion rate (GIR) in the last 15 minutes of the control period and after the injection of the peptide is calculated. The activity of the peptide is determined by the increase in glucose infusion rate and change in insulin secreted after the injection of the peptide.", "data": [{"smiles": "CC[C@H](C)[C@H](NC(=O)[C@H](Cc1ccccc1)NC(=O)[C@H](CCC(=O)O)NC(=O)[C@H](CCCCN)NC(=O)[C@H](C)NC(=O)[C@H](C)NC(=O)[C@H](CCC(N)=O)NC(=O)CNC(=O)[C@H](CCC(=O)O)NC(=O)[C@H](CC(C)C)NC(=O)[C@H](Cc1ccc(O)cc1)NC(=O)[C@H](CO)NC(=O)[C@H](CO)NC(=O)[C@@H](NC(=O)[C@H](CC(=O)O)NC(=O)[C@H](CO)NC(=O)[C@@H](NC(=O)[C@H](Cc1ccccc1)NC(=O)[C@@H](NC(=O)CNC(=O)[C@@H](N)CCC(=O)O)[C@@H](C)O)[C@@H](C)O)C(C)C)C(=O)N[C@@H](C)C(=O)N[C@@H](Cc1c[nH]c2ccccc12)C(=O)N[C@@H](CC(C)C)C(=O)N[C@H](C(=O)N[C@@H](CCCCN)C(=O)NCC(=O)N[C@@H](CCCNC(=N)N)C(N)=O)C(C)C", "note": "[GLP-1(9-36)NH2]", "values": [{"measurement": "% Change in GIR", "setting": "time 60 min", "result": 21.936, "unit": "%"}, {"measurement": "Plasma Insulin Change", "setting": "time 60 min", "result": 2.429, "unit": "ng/mL"}, {"measurement": "% Change in GIR", "setting": "time 62 min", "result": -1.287, "unit": "%"}, {"measurement": "Plasma Insulin Change", "setting": "time 62 min", "result": -0.521, "unit": "ng/mL"}, {"measurement": "% Change in GIR", "setting": "time 64 min", "result": 0.635, "unit": "%"}, {"measurement": "Plasma Insulin Change", "setting": "time 64 min", "result": -0.765, "unit": "ng/mL"}, {"measurement": "% Change in GIR", "setting": "time 66 min", "result": 10.697, "unit": "%"}, {"measurement": "Plasma Insulin Change", "setting": "time 66 min", "result": -0.637, "unit": "ng/mL"}, {"measurement": "% Change in GIR", "setting": "time 68 min", "result": 24.584, "unit": "%"}, {"measurement": "Plasma Insulin Change", "setting": "time 68 min", "result": -0.662, "unit": "ng/mL"}, {"measurement": "% Change in GIR", "setting": "time 70 min", "result": 46.387, "unit": "%"}, {"measurement": "Plasma Insulin Change", "setting": "time 70 min", "result": -0.274, "unit": "ng/mL"}, {"measurement": "% Change in GIR", "setting": "time 75 min", "result": 61.185, "unit": "%"}, {"measurement": "Plasma Insulin Change", "setting": "time 75 min", "result": 0.138, "unit": "ng/mL"}, {"measurement": "% Change in GIR", "setting": "time 80 min", "result": 48.254, "unit": "%"}, {"measurement": "Plasma Insulin Change", "setting": "time 80 min", "result": -0.390, "unit": "ng/mL"}, {"measurement": "% Change in GIR", "setting": "time 85 min", "result": 34.689, "unit": "%"}, {"measurement": "Plasma Insulin Change", "setting": "time 85 min", "result": 0.064, "unit": "ng/mL"}, {"measurement": "% Change in GIR", "setting": "time 90 min", "result": 17.272, "unit": "%"}, {"measurement": "Plasma Insulin Change", "setting": "time 90 min", "result": -0.361, "unit": "ng/mL"}, {"measurement": "% Change in GIR", "setting": "time 100 min", "result": 7.537, "unit": "%"}, {"measurement": "Plasma Insulin Change", "setting": "time 100 min", "result": -0.743, "unit": "ng/mL"}, {"measurement": "% Change in GIR", "setting": "time 110 min", "result": -0.920, "unit": "%"}, {"measurement": "Plasma Insulin Change", "setting": "time 110 min", "result": -0.824, "unit": "ng/mL"}, {"measurement": "% Change in GIR", "setting": "time 120 min", "result": 4.716, "unit": "%"}, {"measurement": "Plasma Insulin Change", "setting": "time 120 min", "result": -0.880, "unit": "ng/mL"}, {"measurement": "% Change in GIR", "setting": "time 130 min", "result": 3.818, "unit": "%"}, {"measurement": "Plasma Insulin Change", "setting": "time 130 min", "result": -0.653, "unit": "ng/mL"}, {"measurement": "% Change in GIR", "setting": "time 140 min", "result": -6.783, "unit": "%"}, {"measurement": "Plasma Insulin Change", "setting": "time 140 min", "result": -0.927, "unit": "ng/mL"}, {"measurement": "% Change in GIR", "setting": "time 150 min", "result": 1.333, "unit": "%"}, {"measurement": "Plasma Insulin Change", "setting": "time 150 min", "result": -0.450, "unit": "ng/mL"}]}]}
